US10421751B2, “Dihydro-2H-benzo[b][1,4]oxazine sulfonamide and related compounds for use as agonists of RORγ and the treatment of disease” (Lycera Corporation, priority 2015, dated 2019)
pEC50: −log10 of the molar value.

Key:
Gal4-RORγ-LBD = target: T1, Gal4-RORγ-LBD (Homo sapiens, UniProt P51449); experiment: Gal4-RORγ Luciferase Reporter Assay in HEK-293T Cells; assay type: cell-based; settings: for pEC50: HEK-293 cells, in presence of 2 μM ursolic acid, overnight incubation, read-out: Ga14-RORγ Assay EC50; for Ga14-RORγ Assay Max Response: upper plateau of 4-parameter fit, luciferase signal in the absence of ursolic acid or test compound defined at 100
T1 construct: expressed in transfected cells; pcDNA3.1neo plasmid, co-transfected with pGL4.31 Gal4-luciferase reporter
T1 sequence (P51449 269-508 limits assumed): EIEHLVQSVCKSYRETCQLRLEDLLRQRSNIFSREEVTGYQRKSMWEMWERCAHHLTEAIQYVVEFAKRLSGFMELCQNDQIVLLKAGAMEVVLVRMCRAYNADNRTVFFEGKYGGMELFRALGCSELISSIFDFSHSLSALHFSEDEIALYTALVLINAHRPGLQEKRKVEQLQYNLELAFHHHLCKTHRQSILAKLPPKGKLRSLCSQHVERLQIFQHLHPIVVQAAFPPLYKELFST
Protocol: In the following protocol, HEK-293 cells were transfected with a construct comprising the Gal4 DNA binding domain fused to the ligand binding domain of RORγ (Gal4-RORγ-LBD) in a pcDNA3.1neo plasmid, and also with a reporter construct comprising pGL4.31 Gal4-luciferase (Promega). Control cells were prepared similarly using empty pcDNA3.1neo and pGL4.31 vectors.
Trans-IT reagent (Mirus, 60 μL) at room temperature was added drop wise to OptiMEM (Invitrogen, 1.5 ml). This reagent mixture was mixed by inversion then incubated for 5 to 30 minutes at room temperature. It then was added to a solution of both expression vectors (5 μg each), mixed, and incubated at room temperature for about 20 minutes. HEK-293 cells were harvested from incubation flasks by removing the media, treating with TrypLE Express (Invitrogen), and incubating until the cells detached from the bottom of the flask (approximately 2-5 minutes). 10 Million cells were collected by centrifugation and re-suspended in 10 mL of Dulbecco's Modified Eagle Medium, High Glucose (DMEM, Invitrogen) containing 10% Fetal Bovine Serum and 100 IU each of penicillin and streptomycin. The re-suspended cells and the transfection mixture were added to a T75 flask, mixed and incubated overnight at 37° C. and 5% CO2.
The cells were harvested as described above, counted, and centrifuged to obtain the desired number of cells, then re-suspended in complete growth media at 0.75×10^6 cells/mL. The RORγ antagonist, ursolic acid, was added to the cells at a final concentration of 2 μM. Cells were plated at 20 μL of cell suspension/well (10,000-15,000 cells/well) in white tissue culture treated 384 well plates. Test compounds were dissolved at 10 mM in DMSO then diluted into complete growth medium to 5× the final intended test concentration. These drug stock solutions, 5 μL/well were added to the tissue culture plate. The final DMSO concentration was 0.2%. The plates were briefly centrifuged then incubated overnight at 37° C. and 5% CO2. To conduct the assay, the tissue culture plates were allowed to equilibrate to room temperature and One-Glo luciferase reagent (Promega, 25 μL/well) was added. The plates were briefly centrifuged then incubated at room temperature for 10 minutes. The luciferase intensity was read on an Envision plate reader (Perkin Elmer). RORγ activity was determined relative to controls and plotted as a function of test compound concentration using PRISM (GraphPad) to determine a 50% effective concentration (EC50). The luciferase signal in the absence of ursolic acid or test compound is defined at 100. The Max Response is the upper plateau in the signal as determined by line-fit using a 4-parameter logistic model in PRISM (GraphPad).

RORγ-LBD = target: T2, RORγ-LBD (Homo sapiens, UniProt P51449); experiment: RORγ-Ligand Binding Domain (LBD) TR-FRET Assay; assay type: biochemical; settings: for pEC50: in presence of 2 μM RORγ antagonist ursolic acid, SRC1 coactivator peptide; for TR-FRET Assay Max Response: upper plateau of 4-parameter fit, signal in the absence of ursolic acid or test compound set as 100
T2 construct: made in house; host or cells: SF9 cells, baculovirus expression system; used as diluted lysate
T2 sequence (P51449 269-508 limits assumed): T1 sequence (P51449 269-508 limits assumed)
Protocol: HIS-tagged RORγ-LBD protein was expressed in SF9 cells using a baculovirus expression system. The lysate was diluted in assay buffer (50 mM Tris pH 7.0, 50 mM KCl, 1 mM EDTA, 0.1 mM DTT, 0.01% BSA) to obtain RORγ-LBD final concentration of ˜3 nM in a 384-well assay plate (need to titrate for each batch of protein).
A stock of biotinylated-LXXLL peptide from coactivator SRC1 (Biotin-[…]) was prepared in assay buffer and added to each well (200 nM final concentration). A solution of Europium tagged anti-HIS antibody (0.6 nM final concentration) and APC-conjugated streptavidin (30 nM final concentration) were also added to each well. RORγ antagonist ursolic acid was also included at a final concentration of 2 μM. Compounds were diluted in DMSO and further diluted in assay buffer with a final DMSO concentration at 1%.
The final assay mixture was incubated overnight at 4° C. or 2 hours at room temperature, and the fluorescence signal was measured on an Envision plate reader: (Excitation filter=340 nm; APC emission=665 nm; Europium emission=615 nm; dichroic mirror=D400/D630; delay time=100 μs, integration time=200 μs). 50% Effective concentration (EC50) values for test compounds were calculated from the quotient of the fluorescence signal at 665 nm divided by the fluorescence signal at 615 nm. The quotient of the fluorescence signals in the absence of ursolic acid or test compound is set as 100. Max Response is defined as the upper plateau in the signal as determined by line-fit using a 4-parameter logistic model in PRISM (GraphPad).

pEC50 (Gal4-RORγ-LBD)	pEC50 (RORγ-LBD)	SMILES	Ga14-RORγ Assay Max Response (Gal4-RORγ-LBD)	TR-FRET Assay Max Response (RORγ-LBD)
5.30 to 7.00	> 7.00	O=c1[nH]nc(CC[C@H]2CN(S(=O)(=O)c3cccc(OC(F)F)c3)c3cc(/C=C/c4c(Cl)cccc4C(F)(F)F)ccc3O2)o1	** (a value in the range of greater than 90 to 150)	**** (a value greater than 200)
5.30 to 7.00	> 7.00	C/C(=C\c1ccc2c(c1)N(S(=O)(=O)c1cccc(OC(F)F)c1)C[C@H](CCOc1noc(=O)[nH]1)O2)c1c(F)cccc1Cl	** (a value in the range of greater than 90 to 150)	*** (a value in the range of greater than 150 to 200)
5.30 to 7.00	> 7.00	CCn1cc(S(=O)(=O)N2C[C@H](CCc3n[nH]c(=O)o3)Oc3ccc(/C=C(\C)c4c(F)cccc4Cl)cc32)c(OCCO)n1	** (a value in the range of greater than 90 to 150)	**** (a value greater than 200)
5.30 to 7.00	5.30 to 7.00	C/C(=C\c1ccc2c(c1)N(S(=O)(=O)c1cccc(C(F)(F)F)c1)C[C@H](CCCc1nn[nH]n1)O2)c1c(F)cccc1Cl	** (a value in the range of greater than 90 to 150)	*** (a value in the range of greater than 150 to 200)
5.30 to 7.00	> 7.00	C/C(=C\c1ccc2c(c1)N(S(=O)(=O)c1cccc(C(F)(F)F)c1)C[C@H](CCc1nn[nH]n1)O2)c1c(F)cccc1Cl	*** (a value in the range of greater than 150 to 200)	*** (a value in the range of greater than 150 to 200)
5.30 to 7.00	> 7.00	C/C(=C\c1ccc2c(c1)N(S(=O)(=O)c1cccc(C(F)(F)F)c1)C[C@H](Cc1n[nH]c(=O)o1)O2)c1c(F)cccc1Cl	* (a value in the range of 40 to 90)	*** (a value in the range of greater than 150 to 200)
5.30 to 7.00	> 7.00	C/C(=C\c1ccc2c(c1)N(S(=O)(=O)c1ccc(F)c(OC(F)F)c1)C[C@H](CCc1n[nH]c(=O)o1)O2)c1c(F)cccc1Cl	** (a value in the range of greater than 90 to 150)	**** (a value greater than 200)
5.30 to 7.00	> 7.00	C/C(=C\c1ccc2c(c1)N(S(=O)(=O)c1cc(Cl)cnc1OCCO)C[C@H](CCc1n[nH]c(=O)o1)O2)c1c(F)cccc1Cl	** (a value in the range of greater than 90 to 150)	**** (a value greater than 200)
5.30 to 7.00	> 7.00	CCOc1nn(CC)cc1S(=O)(=O)N1C[C@H](CCc2n[nH]c(=O)o2)Oc2ccc(/C=C(\C)c3c(F)cccc3Cl)cc21	*** (a value in the range of greater than 150 to 200)	*** (a value in the range of greater than 150 to 200)
5.30 to 7.00	> 7.00	CCOc1nn(CC)cc1S(=O)(=O)N1C[C@H](CCOc2noc(=O)[nH]2)Oc2ccc(/C=C(\C)c3c(F)cccc3Cl)cc21	** (a value in the range of greater than 90 to 150)	*** (a value in the range of greater than 150 to 200)
5.30 to 7.00	5.30 to 7.00	CCOc1ncc(C(F)(F)F)cc1S(=O)(=O)N1C[C@H](CCc2n[nH]c(=O)o2)Oc2ccc(/C=C/c3c(Cl)cccc3C(F)(F)F)cc21	** (a value in the range of greater than 90 to 150)	**** (a value greater than 200)

Further lines, the compound ahead of its results:

SMILES	pEC50 (Gal4-RORγ-LBD)	pEC50 (RORγ-LBD)	Ga14-RORγ Assay Max Response (Gal4-RORγ-LBD)	TR-FRET Assay Max Response (RORγ-LBD)
O=c1[nH]nc(CC[C@H]2CN(S(=O)(=O)c3cccc(C(F)(F)F)c3)c3cc(/C=C/c4ncccc4C(F)(F)F)ccc3O2)o1	5.30 to 7.00	> 7.00	** (a value in the range of greater than 90 to 150)	*** (a value in the range of greater than 150 to 200)
C/C(=C\c1ccc2c(c1)N(S(=O)(=O)c1cccc(C(F)(F)F)c1)C[C@H](CCn1cccn1)O2)c1c(F)cccc1Cl	5.30 to 7.00	> 7.00	** (a value in the range of greater than 90 to 150)	*** (a value in the range of greater than 150 to 200)
C/C(=C\c1ccc2c(c1)N(S(=O)(=O)c1cccc(C(F)(F)F)c1)C[C@H](CCn1ccnc1C)O2)c1c(F)cccc1Cl	5.30 to 7.00	> 7.00	** (a value in the range of greater than 90 to 150)	*** (a value in the range of greater than 150 to 200)
O=c1[nH]nc(CC[C@H]2CN(S(=O)(=O)c3cccc(C(F)(F)F)c3)c3cc(/C=C/c4c(Cl)cccc4C(F)(F)F)ccc3O2)o1	5.30 to 7.00	> 7.00	** (a value in the range of greater than 90 to 150)	*** (a value in the range of greater than 150 to 200)
C/C(=C\c1ccc2c(c1)N(S(=O)(=O)c1cccc(C(F)(F)F)c1)C[C@H](Oc1noc(=O)[nH]1)C2)c1c(F)cccc1Cl	5.30 to 7.00	5.30 to 7.00	** (a value in the range of greater than 90 to 150)	*** (a value in the range of greater than 150 to 200)
C/C(=C\c1ccc2c(c1)N(S(=O)(=O)c1cccc(C(F)(F)F)c1)C[C@H](CCn1ccnn1)O2)c1c(F)cccc1Cl	5.30 to 7.00	> 7.00	** (a value in the range of greater than 90 to 150)	*** (a value in the range of greater than 150 to 200)
C[C@@H]1[C@H](n2cc[nH]c2=O)Cc2ccc(/C=C/c3c(F)cccc3C(F)(F)F)cc2N1S(=O)(=O)c1cccc(C(F)(F)F)c1	5.30 to 7.00	5.30 to 7.00	** (a value in the range of greater than 90 to 150)	*** (a value in the range of greater than 150 to 200)
C/C(=C\c1ccc2c(c1)N(S(=O)(=O)c1cccc(C(F)(F)F)c1)C[C@H](CCCn1ccnn1)O2)c1c(F)cccc1Cl	5.30 to 7.00	> 7.00	** (a value in the range of greater than 90 to 150)	*** (a value in the range of greater than 150 to 200)
